In patent publication US10774046B2, “Inhibitors for the treatment of cancer and related methods” (UNIVERSITY OF LOUISVILLE RESEARCH FOUNDATION, INC., priority 2017, dated 2020):
Blank lines part the entries; values can stand above or below the molecule they belong to.

Assays:
[1] = tested on: H460 cells; test: intracellular ATP measurement; format: cell-based, human
Procedure: H460 cells were exposed to the indicated concentrations of MPN-2 and ATP production was examined. Cells were lysed and intracellular ATP determined as described previously. For example, cells were washed (while still adherent) with cold PBS 1×, lysed with Passive Lysis Buffer (1×; Molecular Probes, Invitrogen) added directly to the plates, and immediately harvested by scraping. The lysates were flash frozen (to −80° C.) and thawed (to 37° C.) once to accomplish complete lysis and then centrifuged (at 4° C.) for 30 seconds to clear the lysates. Intracellular ATP levels were determined using a bioluminescence assay (Molecular Probes), utilizing recombinant firefly luciferase and its substrate, D-luciferin. The luminescence was read in a TD-20/20 luminometer (Turner Designs) at 560 nm. The ATP values were calculated using an ATP standard curve. The protein concentrations of the lysates were estimated using the BCA assay (Pierce Biotechnology) and ATP was expressed as pmol/μg protein. All data are expressed as the mean±SD of three experiments. Statistical significance was assessed by the two-sample t test (independent variable).

[2] = tested on: H460 cells; test: glycolysis assay (3H2O from 5-[3H]glucose); format: cell-based, human
Procedure: H460 cells were exposed to the indicated concentrations of MPN-2 and glycolysis production was examined. Cells growing in 6-well plates were incubated in 500 μl of complete medium containing 1 μCi of 5-[^3H]glucose per well for 60 min in 5% CO2 at 37° C. Media was collected, ^3H2O formed via glycolysis from the 5-[^3H]glucose measured and counts normalized as previously described. For example, the medium was then collected and centrifuged to pellet any suspended cells. To separate the ^3H2O formed via glycolysis from the 5-[^3H]glucose added to the medium, an evaporation technique in a sealed system was utilized. Briefly, 150 μl aliquots of medium were added to open tubes that were placed upright inside scintillation vials containing 1 ml of H2O. The scintillation vials were sealed, and the ^3H2O produced by glycolysis through enolase and released to the medium was allowed to equilibrate with the H2O in the outer vial for 48 h at 37° C. The amounts of ^3H2O that had diffused into the surrounding H2O was measured on a Tri-Carb 2910 liquid scintillation analyzer (Perkin Elmer) and compared with ^3H2O and 5-[^3H]glucose standards. Protein concentration was determined using the BCA assay and counts were normalized to protein concentration. All data are expressed as the mean±SD of three experiments. Statistical significance was assessed by the two-sample t test (independent variable).
Method: To examine glycolysis, H460 cells growing in 6-well plates were incubated in 500 μl of complete medium containing 1 μCi of 5-[^3H] glucose per well for 60 min in 5% CO2 at 37° C. The medium was then collected and centrifuged to pellet any suspended cells. To separate the ^3H2O formed via glycolysis from the 5-[^3H]glucose added to the medium, an evaporation technique in a sealed system was utilized. Briefly, 150 μl aliquots of medium were added to open tubes that were placed upright inside scintillation vials containing 1 ml of H2O. The scintillation vials were sealed, and the ^3H2O produced by glycolysis through enolase and released to the medium was allowed to equilibrate with the H2O in the outer vial for 48 h at 37° C. The amounts of ^3H2O that had diffused into the surrounding H2O was measured on a Tri-Carb 2910 liquid scintillation analyzer (Perkin Elmer) and compared with ^3H2O and 5-[^3H]glucose standards. Protein concentration was determined using the BCA assay and counts were normalized to protein concentration (previously described in CHESNEY et al. Oncotarget. 2014; 5(16):6670-6686.)

[3] = oral and intravenous pharmacokinetic properties; format: in vivo; conditions: CD-1 mice (N=3)
[4] = tested on: normal human bronchial epithelial (NHBE) cells; test: cell growth of normal cells, live cell count; format: cell-based; conditions: live cells at 48 hours
Description: H460, H1299, H441, H522 and A549 non-small cell lung cancer (NSCLC), MDA-MB-231 (breast), LNCaP (prostatic) and HCT116 (colon) adenocarcinoma and Lewis lung carcinoma (LLC) cell lines were obtained from ATCC and used within 6 months of acquisition. PFKFB4^−/− ear pinna fibroblasts isolated from TamCre/loxP/PFKFB4^−/− mice were immortalized as described previously (Chesney J et al. Fructose-2,6-bisphosphate synthesis by 6-phosphofructo-2-kinase/fructose-2,6-bisphosphatase 4 (PFKFB4) is required for the glycolytic response to hypoxia and tumor growth. Oncotarget 2014 Aug. 30; 5(16):6670-86). Normal bronchial epithelial cells (NHBE) were obtained from Lonza and NHBE cells expressing telomerase, SV40 large T antigen and activated Ras (hT/LT/Ras) were a gift from Dr. B. J. Rollins, Dana Farber Cancer Institute. All cell lines were tested and found negative for mycoplasma (PCR Mycoplasma Detection Kit, ABM). Cell lines were grown in DMEM (A549, LNCaP, MDA-MB-231, LLC and PFKFB4^−/−), RPMI 1640 (H460, H1299, H441, H522) and McCoy's 5A media (HCT116) (all from Invitrogen) containing 10% fetal calf serum (Hyclone). […]
Cells were incubated in 20% trypan blue (Sigma) for 5 minutes. Cells excluding trypan blue were counted using a standard hemocytometer (Hausser Scientific) to determine total numbers of viable cells. Data are expressed as mean±SD of three experiments.

[5] = tested on: cancer cells; test: intracellular ATP measurement; format: cell-based; conditions: increasing concentrations
Procedure: Method: To measure ATP, cells were washed (while still adherent) with cold PBS, lysed with Passive Lysis Buffer (Molecular Probes, Invitrogen) added directly to the plates, and immediately harvested by scraping. The lysates were flash frozen (to −80° C.) and thawed (to 37° C.) once to accomplish complete lysis and then centrifuged to clear the lysates. Intracellular ATP levels were determined using a bioluminescence assay (Molecular Probes), utilizing luciferase and its substrate, D-luciferin and ATP values were calculated using an ATP standard curve. The ATP concentration was normalized to protein concentration that was estimated using the BCA assay.

[6] = H460, indicated concentrations of MPN-2, 48 hours

- intravenous bioavailability [3]: exhibits intravenous bioavailability
- oral bioavailability [3]: has oral bioavailability
Molecule: 5-[(8-methoxy-2-methylquinolin-1-ium-4-yl)amino]pentyl nitrate [MPN-2]
- ATP production [1, 6]: decreased
- intracellular glycolysis [2, 6]: decreased

Molecule: COc1cccc2c(NCCCCCO[N+](=O)[O-])ccnc12 [5MPN, 5-[(8-methoxyquinolin-4-yl)amino]pentyl nitrate]
- ATP ([1]; H460, 10 μM 5MPN, 6-72 hours): reduced
- glycolysis ([2]; H460, 10 μM 5MPN, 6-72 hours): reduced
- cell growth of normal cells [4]: virtually unaffected

Molecule: COc1cccc2c(NCCCCCNC(=O)C(F)(F)F)ccnc12 [Formula (VIII), 2,2,2-trifluoro-N-(5-((8-methoxyquinolin-4-yl)amino)pentyl)acetamide]
- production of ATP [5]: dose-dependent decrease
